Assay results reported in article PMC10939250 (PLOS Biology, 2024).
Residues, ends and D or L forms follow the SMILES beside them.

Assays:
[1] = mouse, in vivo

For CC[C@H](C)[C@H](NC(=O)[C@H](CC(C)C)NC(=O)[C@@H](NC(=O)CNC(=O)[C@@H](NC(=O)[C@H](CC(=O)O)NC(=O)[C@H](CC(=O)O)NC(=O)[C@H](CO)NC(=O)[C@@H](NC(=O)[C@H](Cc1ccccc1)NC(=O)[C@H](CO)NC(=O)[C@H](Cc1ccc(O)cc1)NC(=O)[C@H](CCSC)NC(=O)[C@H](CCC(N)=O)NC(=O)[C@@H]1CCCN1C(=O)[C@@H]1CCCN1C(=O)[C@H](CCCNC(=N)N)NC(=O)[C@H](CCCNC(=N)N)NC(=O)[C@H](CCCNC(=N)N)NC(=O)[C@H](CCC(N)=O)NC(=O)[C@H](CCCNC(=N)N)NC(=O)[C@H](CCCNC(=N)N)NC(=O)[C@H](CCCCN)NC(=O)[C@H](CCCCN)NC(=O)[C@H](CCCNC(=N)N)NC(=O)CN)C(C)C)[C@@H](C)O)[C@@H](C)O)C(=O)N[C@H](C(=O)N[C@@H](CC(N)=O)C(=O)N[C@@H](CO)C(=O)N[C@H](C(=O)N[C@@H](CC(C)C)C(=O)O)C(C)C)C(C)C [iPep-SARS2-E] (H-GRKKRRQRRRPPQMYSFVSDDTGTLIVNSVL-OH), the IC50 (SARS-CoV-2 WA1 virus) was roughly 400 nM, the “Body weight and inflammation markers Cxcl12 and C5a” value [1] was “did not find any significant differences” and the “Cellular toxicity (healthy, apoptotic, dead/necrotic cells)” value (Jurkat cells) was “does not cause cellular toxicity”.
